Measured values as given in PubChem BioAssay AID330 (DTP/NCI, 2004).
Where “and” joins values, the source holds several entries; their conditions need not be identical. Equal values may be shown once. Inconclusive results and toxic doses are left out.

System: P388 leukemia ip, CD2F1 mice, survival T/C
Experiment: NCI In Vivo Anticancer Drug Screen. Data for tumor model P388 Leukemia (intraperitoneal) in CD2F1 (CDF1) mice
Conditions: endpoint: median survival time, higher = longer survival
Procedure, shortened: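 Mice carrying the transplanted tumor received test compound or vehicle. Survival was recorded in each group, and the value is the treated-group measurement divided by that of the vehicle-treated control group.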

[1] = dose: 100.0 mg/kg/injection, schedule: Q04DX002 (ip), vehicle: saline with Tween-80
[2] = dose: 200.0 mg/kg/injection, schedule: Q04DX002 (ip), vehicle: saline with Tween-80
[3] = dose: 400.0 mg/kg/injection, schedule: Q04DX002 (ip), vehicle: saline with Tween-80
[4] = dose: 100.0 mg/kg/injection, schedule: Q01DX009 (ip), vehicle: saline with Tween-80

Q: `CCCCOP(=O)(N1CC1(C)C)N1CC1(C)C` (centres undefined) was tested. Which T/C (dose: 2.0 mg/kg/injection, schedule: Q01DX009 (ip), vehicle: saline) did it give?
A: 104 % of control and 115 % of control and 96 % of control

Q: What about the T/C (dose: 4.0 mg/kg/injection, schedule: Q01DX009 (ip), vehicle: saline) of the same compound?
A: 115 % of control and 117 % of control and 98 % of control

Q: And the T/C (dose: 8.0 mg/kg/injection, schedule: Q01DX009 (ip), vehicle: saline)?
A: 108 % of control and 111 % of control

Q: And the T/C (dose: 10.0 mg/kg/injection, schedule: Q01DX001 (ip), vehicle: saline)?
A: 105 % of control and 111 % of control and 115 % of control

Q: And the T/C (dose: 20.0 mg/kg/injection, schedule: Q01DX001 (ip), vehicle: saline)?
A: 101 % of control and 102 % of control

Q: What about the T/C (dose: 40.0 mg/kg/injection, schedule: Q01DX001 (ip), vehicle: saline) of the same compound?
A: 105 % of control and 117 % of control

Q: `Nc1ccc(S(=O)(=O)Nc2ccccc2O)cc1` was tested. Which T/C (dose: 3.12 mg/kg/injection, schedule: Q01DX001 (ip), vehicle: saline with Tween-80) did it give?
A: 99 % of control

Q: And the T/C (dose: 6.25 mg/kg/injection, schedule: Q01DX001 (ip), vehicle: saline with Tween-80)?
A: 106 % of control

Q: And the T/C (dose: 12.5 mg/kg/injection, schedule: Q01DX001 (ip), vehicle: saline with Tween-80)?
A: 97 % of control

Q: And the T/C (dose: 25.0 mg/kg/injection, schedule: Q01DX001 (ip), vehicle: saline with Tween-80)?
A: 94 % of control

Q: And the T/C (dose: 50.0 mg/kg/injection, schedule: Q01DX001 (ip), vehicle: saline with Tween-80)?
A: 100 % of control

Q: With `COc1cc(C(=O)OC(CN2CCOCC2)Cn2nnc3c(OC)c(OC)c(OC)cc3c2=O)cc(OC)c1OC` (centres undefined) as the compound, how does the T/C (dose: 50.0 mg/kg/injection, schedule: Q01DX009 (ip), vehicle: water) read?
A: 100 % of control

Q: And the T/C (dose: 100.0 mg/kg/injection, schedule: Q01DX009 (ip), vehicle: water)?
A: 100 % of control

Q: What about the T/C (dose: 200.0 mg/kg/injection, schedule: Q01DX009 (ip), vehicle: water) of the same compound?
A: 108 % of control

Q: With `Nc1ncc2c(n1)Oc1cc3nc4c(=O)nc(N)nc-4oc3cc1N2` as the compound, how does the T/C (dose: 50.0 mg/kg/injection, schedule: Q01DX005 (ip), vehicle: Klucel (hydroxypropylcellulose) (HPC)) read?
A: 91 % of control

Q: What about the T/C (dose: 100.0 mg/kg/injection, schedule: Q01DX005 (ip), vehicle: Klucel (hydroxypropylcellulose) (HPC)) of the same compound?
A: 93 % of control

Q: With `COc1ccccc1/C=N/Nc1ccc2ccccc2n1` as the compound, how does the T/C (dose: 50.0 mg/kg/injection, schedule: Q04DX003 (ip), vehicle: saline with Tween-80) read?
A: 93 % of control

Q: What about the T/C (dose: 100.0 mg/kg/injection, schedule: Q04DX003 (ip), vehicle: saline with Tween-80) of the same compound?
A: 90 % of control

Q: What about the T/C (dose: 200.0 mg/kg/injection, schedule: Q04DX003 (ip), vehicle: saline with Tween-80) of the same compound?
A: 90 % of control

Q: With `CC(=O)Nc1nc(=O)c2c(n1C(C)=O)N(C(C)=O)C(=O)C2` as the compound, how does the T/C [1] read?
A: 103 % of control

Q: What about the T/C [2] of the same compound?
A: 103 % of control

Q: What about the T/C [3] of the same compound?
A: 100 % of control

Q: What does the source list for `O=C1N=C2SCCN2C1(c1ccccc1)c1ccccc1`?
A: T/C (dose: 25.0 mg/kg/injection, schedule: Q04DX003 (ip), vehicle: Klucel (hydroxypropylcellulose) (HPC)): 100 % of control; T/C (dose: 50.0 mg/kg/injection, schedule: Q04DX003 (ip), vehicle: Klucel (hydroxypropylcellulose) (HPC)): 100 % of control; T/C (dose: 100.0 mg/kg/injection, schedule: Q04DX003 (ip), vehicle: Klucel (hydroxypropylcellulose) (HPC)): 92 % of control; T/C (dose: 200.0 mg/kg/injection, schedule: Q04DX003 (ip), vehicle: Klucel (hydroxypropylcellulose) (HPC)): 109 % of control; T/C (dose: 400.0 mg/kg/injection, schedule: Q04DX003 (ip), vehicle: Klucel (hydroxypropylcellulose) (HPC)): 103 % of control

Q: Which results are given for `COc1cccc2c1C(=O)c1c(O)c3c(c(O)c1C2=O)C[C@@](O)(/C(CO)=N/NC(=O)c1ccccc1)C[C@@H]3OC1CC(N)C(O)C(C)O1` (some centres undefined)?
A: T/C (dose: 0.12 mg/kg/injection, schedule: Q01DX009 (ip), vehicle: water): 103 % of control; T/C (dose: 0.25 mg/kg/injection, schedule: Q01DX009 (ip), vehicle: water): 99 % of control; T/C (dose: 0.5 mg/kg/injection, schedule: Q01DX009 (ip), vehicle: water): 150 % of control; T/C (dose: 0.8 mg/kg/injection, schedule: Q01DX009 (ip), vehicle: saline): 112 % of control; T/C (dose: 1.0 mg/kg/injection, schedule: Q01DX009 (ip), vehicle: water): 154 % of control and 169 % of control; T/C (dose: 1.4 mg/kg/injection, schedule: Q01DX009 (ip), vehicle: saline): 112 % of control; T/C (dose: 2.0 mg/kg/injection, schedule: Q01DX009 (ip), vehicle: water): 154 % of control and 171 % of control and 190 % of control; T/C (dose: 2.3 mg/kg/injection, schedule: Q01DX009 (ip), vehicle: saline): 113 % of control; T/C (dose: 3.9 mg/kg/injection, schedule: Q01DX009 (ip), vehicle: saline): 118 % of control; T/C (dose: 4.0 mg/kg/injection, schedule: Q01DX009 (ip), vehicle: water): 172 % of control and 180 % of control and 212 % of control; T/C (dose: 6.0 mg/kg/injection, schedule: Q04DX003 (ip), vehicle: water): 96 % of control; T/C (dose: 8.0 mg/kg/injection, schedule: Q01DX009 (ip), vehicle: water): 201 % of control and 230 % of control and 390 % of control; T/C (dose: 8.6 mg/kg/injection, schedule: Q01DX009 (ip), vehicle: saline): 163 % of control; T/C (dose: 10.8 mg/kg/injection, schedule: Q01DX009 (ip), vehicle: saline): 187 % of control; T/C (dose: 18.0 mg/kg/injection, schedule: Q01DX009 (ip), vehicle: saline): 90 % of control; T/C (dose: 96.0 mg/kg/injection, schedule: Q04DX003 (ip), vehicle: water): 114 % of control

Q: How did the T/C (dose: 15.0 mg/kg/injection, schedule: Q01DX005 (ip), vehicle: saline with Tween-80) turn out when `COc1cc(C2c3cc4c(cc3OC(O)C2C)OCO4)cc(OC)c1OC` (centres undefined) was run?
A: 99 % of control

Q: And the T/C (dose: 30.0 mg/kg/injection, schedule: Q01DX005 (ip), vehicle: saline with Tween-80)?
A: 101 % of control

Q: What about the T/C (dose: 60.0 mg/kg/injection, schedule: Q01DX005 (ip), vehicle: saline with Tween-80) of the same compound?
A: 99 % of control and 112 % of control

Q: What about the T/C (dose: 120.0 mg/kg/injection, schedule: Q01DX005 (ip), vehicle: saline with Tween-80) of the same compound?
A: 117 % of control

Q: Which results are given for `COc1cc(C(NC(N)=O)c2cc3c(cc2O)OCO3)cc(OC)c1O` (centres undefined)?
A: T/C (dose: 60.0 mg/kg/injection, schedule: Q01DX005 (ip), vehicle: Klucel + Tween-80): 100 % of control; T/C (dose: 120.0 mg/kg/injection, schedule: Q01DX005 (ip), vehicle: Klucel + Tween-80): 88 % of control; T/C (dose: 240.0 mg/kg/injection, schedule: Q01DX005 (ip), vehicle: Klucel + Tween-80): 88 % of control

Q: `CCCCCCCCCCCCN1CN=C(N)N(C#N)C1` was tested. Which T/C [1] did it give?
A: 92 % of control

Q: What about the T/C [2] of the same compound?
A: 99 % of control

Q: And the T/C [3]?
A: 90 % of control

Q: With `O=C1C2OC2C(=O)C2C3C=CC(C3)C12` (centres undefined) as the compound, how does the T/C (dose: 75.0 mg/kg/injection, schedule: Q04DX002 (ip), vehicle: saline with Tween-80) read?
A: 99 % of control

Q: And the T/C (dose: 150.0 mg/kg/injection, schedule: Q04DX002 (ip), vehicle: saline with Tween-80)?
A: 96 % of control

Q: What about the T/C (dose: 300.0 mg/kg/injection, schedule: Q04DX002 (ip), vehicle: saline with Tween-80) of the same compound?
A: 95 % of control

Q: `CS(=O)(=O)CC(=O)c1ccccc1` was tested. Which T/C (dose: 25.0 mg/kg/injection, schedule: Q01DX009 (ip), vehicle: saline with Tween-80) did it give?
A: 101 % of control and 106 % of control

Q: What about the T/C (dose: 50.0 mg/kg/injection, schedule: Q01DX009 (ip), vehicle: saline with Tween-80) of the same compound?
A: 97 % of control

Q: What about the T/C [4] of the same compound?
A: 111 % of control and 106 % of control

Q: And the T/C (dose: 200.0 mg/kg/injection, schedule: Q01DX009 (ip), vehicle: saline with Tween-80)?
A: 103 % of control and 111 % of control

Q: What does the source list for `O=C(C(Br)C(Br)c1ccccc1)N1CCOCC1` (centres undefined)?
A: T/C [4]: 118 % of control; T/C (dose: 178.0 mg/kg/injection, schedule: Q01DX009 (ip), vehicle: saline with Tween-80): 113 % of control; T/C (dose: 266.0 mg/kg/injection, schedule: Q01DX009 (ip), vehicle: saline with Tween-80): 119 % of control; T/C (dose: 400.0 mg/kg/injection, schedule: Q01DX009 (ip), vehicle: saline with Tween-80): 121 % of control

Q: What does the source list for `CSC(=S)N/N=C(\C)c1ccccn1`?
A: T/C (dose: 50.0 mg/kg/injection, schedule: Q01DX009 (ip), vehicle: saline): 92 % of control; T/C (dose: 100.0 mg/kg/injection, schedule: Q01DX009 (ip), vehicle: saline): 92 % of control; T/C (dose: 200.0 mg/kg/injection, schedule: Q01DX009 (ip), vehicle: saline): 99 % of control; T/C (dose: 400.0 mg/kg/injection, schedule: Q01DX009 (ip), vehicle: saline): 106 % of control

Q: `COC1=C(OC)C(=O)C(N2CCCCC2)=C(CO)C1=O` was tested. Which T/C (dose: 60.0 mg/kg/injection, schedule: Q01DX005 (ip), vehicle: saline + Tween-80 + alcohol) did it give?
A: 88 % of control

Q: What about the T/C (dose: 120.0 mg/kg/injection, schedule: Q01DX005 (ip), vehicle: saline + Tween-80 + alcohol) of the same compound?
A: 94 % of control

Q: And the T/C (dose: 240.0 mg/kg/injection, schedule: Q01DX005 (ip), vehicle: saline + Tween-80 + alcohol)?
A: 107 % of control

Q: With `CCOC(=O)/C(C#N)=C/c1ccc(-c2cc(C(F)(F)F)cc(C(F)(F)F)c2)o1` as the compound, how does the T/C (dose: 50.0 mg/kg/injection, schedule: Q01DX005 (ip), vehicle: saline with Tween-80) read?
A: 92 % of control

Q: And the T/C (dose: 100.0 mg/kg/injection, schedule: Q01DX005 (ip), vehicle: saline with Tween-80)?
A: 90 % of control

Q: And the T/C (dose: 200.0 mg/kg/injection, schedule: Q01DX005 (ip), vehicle: saline with Tween-80)?
A: 88 % of control
